Measurements: patent US20240400553A1, “AMINE BASED MATRIPTASE 2 INHIBITORS AND USES THEREOF” (Disc Medicine, Inc., priority 2023, published 2024)
Where two headings read alike, the source gives them in different places.

Molecular target: T1, Human Recombinant Matriptase 2 (Homo sapiens, UniProt Q8IU80)
T1 construct: made in house
T1 sequence (Q8IU80 1-811): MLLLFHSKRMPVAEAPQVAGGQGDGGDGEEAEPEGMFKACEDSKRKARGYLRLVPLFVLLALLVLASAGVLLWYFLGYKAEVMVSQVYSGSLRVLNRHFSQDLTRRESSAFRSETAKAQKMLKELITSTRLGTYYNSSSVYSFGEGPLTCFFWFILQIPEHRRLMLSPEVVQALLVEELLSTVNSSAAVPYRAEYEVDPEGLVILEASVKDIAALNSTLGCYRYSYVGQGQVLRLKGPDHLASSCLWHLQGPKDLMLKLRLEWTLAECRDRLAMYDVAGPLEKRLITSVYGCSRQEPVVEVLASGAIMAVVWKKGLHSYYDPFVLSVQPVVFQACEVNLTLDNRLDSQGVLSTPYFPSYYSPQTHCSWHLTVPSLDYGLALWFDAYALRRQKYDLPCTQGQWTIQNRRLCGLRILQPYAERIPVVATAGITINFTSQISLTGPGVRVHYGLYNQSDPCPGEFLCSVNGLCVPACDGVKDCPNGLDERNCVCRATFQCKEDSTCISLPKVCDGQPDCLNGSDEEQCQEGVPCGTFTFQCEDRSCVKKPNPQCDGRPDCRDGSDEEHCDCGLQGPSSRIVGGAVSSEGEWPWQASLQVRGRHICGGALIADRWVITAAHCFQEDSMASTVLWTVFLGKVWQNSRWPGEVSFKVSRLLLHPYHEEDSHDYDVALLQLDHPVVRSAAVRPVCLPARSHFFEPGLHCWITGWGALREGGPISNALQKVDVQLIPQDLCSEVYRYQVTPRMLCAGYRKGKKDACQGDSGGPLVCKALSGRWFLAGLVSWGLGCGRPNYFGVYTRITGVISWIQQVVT
Assay: Matriptase 2 inhibition, fluorescence based assay (Method I)
Format: biochemical
Procedure, shortened: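 In-house recombinant enzyme (3.5 nM), preincubated 30 min with compound, then Boc-Gln-Ala-Arg-AMC substrate (62 μM) in 50 mM Tris pH 7.5, 150 mM NaCl, 0.01% gelatin, 1% DMSO, 25 °C. Fluorescence (Ex 360/Em 480 nm) read 60 min after substrate; IC50 from variable-slope sigmoidal fit of % inhibition.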

[1] = Table A, Ki of Matriptase-2 given as class symbols, read-out: Mat-2 Ki
[2] = Table A, Ki of Matriptase-2, read-out: Mat-2 Ki

Ki [1] | SMILES | other results
100 to 500 nM | CC(C)(C)n1cncc1COC(=O)c1cc2ccc(CN)cc2n1Cc1cc(NS(=O)(=O)Cc2ccsc2)cc2ccccc12 [Compound 385, (1-tert-butyl-1H-imid-azol-5-yl)methyl 6-(aminomethyl)-1-({3-[(thiophen-3-yl)methane-sulfonamido]naphthalen-1-yl}methyl)-1H-indole-2-carboxylate] | –
≤ 100 nM | Cc1cccc(C)c1CS(=O)(=O)Nc1cc(Cn2c(C(=O)NCCC3CCN(C)CC3)cc3ccc(CN)cc32)c2ccccc2c1 [Compound 373, 6-(aminomethyl)-1-({3-[(2,6-dimethylphenyl)-methanesulfonamido]-naphthalen-1-yl}methyl)-N-[2-(1-methylpiperidin-4-yl)ethyl]-1H-indole-2-carboxamide] | –
≤ 100 nM | CN1CCC(COC(=O)c2cc3ccc(CN)cc3n2Cc2cc(NS(=O)(=O)Cc3ccsc3)cc3ccccc23)CC1 [Compound 374, (1-methylpiperidin-4-yl)-methyl 6-(aminomethyl)-1-({3-[(thiophen-3-yl)-methanesulfonamido]-naphthalen-1-yl}methyl)-1H-indole-2-carboxylate] | –

The next lines start with the compound.

SMILES | Ki [1] | other results
NCc1ccc2cc(C(=O)O)n(Cc3cc(NC(=O)OC[C@H]4CCN4Cc4ccccc4)cc4ccccc34)c2n1 (racemic) [Compound 340, rac-6-(aminomethyl)-1-({3-[({[(2R)-1-benzyl-azetidin-2-yl]methoxy}-carbonyl)amino]naph-thalen-1-yl}methyl)-1H-pyrrolo[2,3-b]pyridine-2-carboxylic acid] | 500 to 3000 nM | –
C[C@@H]1OCCC1S(=O)(=O)Nc1cc(Cn2c(C(=O)O)cc3ccc(CN)nc32)c2ccccc2c1 (stereo partly drawn) [Compound 272, 6-(aminomethyl)-1-({3-[(2S)-2-methyloxolane-3-sulfonamido]naph-thalen-1-yl}methyl)-1H-pyrrolo[2,3-b]pyridine-2-carboxylic acid] | 500 to 3000 nM | –
NCc1ccc2cc(C(=O)OCCS(N)(=O)=O)n(Cc3cc(NS(=O)(=O)Cc4ccccc4)cc4ccccc34)c2n1 [Compound 84, 2-sulfamoylethyl 6-(aminomethyl)-1-{[3-(phenylmethanesulfon-amido)naphthalen-1-yl]-methyl}-1H-pyrrolo[2,3-b]pyridine-2-carboxylate] | – | Ki [2]: 100 to 500 nM
CC(CCN(C)C)S(=O)(=O)Nc1cc(Cn2c(C(=O)O)cc3ccc(CN)nc32)c2ccccc2c1 (racemic) [Compound 8, 6-(aminomethyl)-1-((3-((3-(dimethylamino)-1-methylpropyl)sulfonamido)naphthalen-1-yl)methyl)-1H-pyrrolo[2,3-b]pyridine-2-carboxylic acid] | – | Ki [2]: 100 to 500 nM
NCc1ccc2cc(C(=O)O)n(Cc3cc(NS(=O)(=O)CC4CNCCO4)cc4ccccc34)c2n1 (racemic) [Compound 224, 6-(aminomethyl)-1-({3-[(morpholin-2-yl)-methanesulfonamido]-naphthalen-1-yl}meth-yl)-1H-pyrrolo[2,3-b]-pyridine-2-carboxylic acid] | 100 to 500 nM | –
COCCN1CC[C@H](COC(=O)c2cc3ccc(CN)nc3n2Cc2cc(NS(=O)(=O)Cc3ccsc3)cc3ccccc23)C1 (racemic) [Compound 172, [1-(2-methoxyethyl)-pyrrolidin-3-yl]methyl 6-(aminomethyl)-1-({3-[(thiophen-3-yl)methane-sulfonamido]naphthalen-1-yl}methyl)-1H-pyr-rolo[2,3-b]pyridine-2-carboxylate] | – | Ki [2]: ≤ 100 nM
C[C@H]1CCC(C)(C)N1C(=O)Nc1cc(Cn2c(C(=O)O)cc3ccc(CN)nc32)c2ccccc2c1 (racemic) [Compound 302, rac-6-(aminomethyl)-1-[(3-{[(SR)-2,2,5-trimeth-ylpyrrolidine-1-carbon-yl]amino}naphthalen-1-yl)methyl]-1H-pyrrolo-[2,3-b]pyridine-2-carbox-ylic acid] | 500 to 3000 nM | –
CN1CC(CCOC(=O)c2cc3ccc(CN)nc3n2Cc2cc(NS(=O)(=O)Cc3ccccc3)cc3ccccc23)CC1=O (stereo not drawn) [Compound 2.7] | – | Ki (Table B, Human Recombinant Matriptase 2, 3.5 nM enzyme, 62 μM substrate, 30 mins preincubation, read-out: Mean Ki): ≤ 100 nM
CN1CCC(COC(=O)c2cc3ccc(CN)nc3n2Cc2cc(NS(=O)(=O)Cc3ccccc3O)cc3ccccc23)CC1 [Compound 203] | ≤ 100 nM | –
